Data as given in patent US9365506B2, “Compounds and compositions as TLR2 agonists” (NOVARTIS AG, priority 2010, dated 2016).
Where two headings read alike, the source gives them in different places.

Target: human TLR2 (Homo sapiens, UniProt O60603)
Test: Reporter gene assay: HEK 293 cells stably transfected with human TLR2 and NF-kB-driven luciferase reporter
Settings: for EC50: HEK 293 stably transfected with human TLR2 and pNifty-Luciferase, 7 hours incubation, concentration giving 50% of maximal signal; for Emax: HEK293, 7 h, read-out: Hek-TLR2 (% Eff)
Procedure: As a control assay, normal Hek293 transfected with pNifty-Luc were used. […] Bright-Glo™ Luciferase assay buffer and substrate were supplied by Promega #E263B and #E264B (assay substrate and buffer respectively). 384 well clear-bottom plates were supplied by Greiner bio-one (#789163-G) and were custom bar-coded plates.
Cells were plated at 25,000 cells/well in 384-well plates in a final volume of 50 μl of media. Cells were allowed to adhere to the plates after overnight (18 hours) culture at 37° C. and 5% CO2. Serially diluted experimental and positive control compounds were then dispensed to each well and incubated for 7 hours at 37° C. and 5% CO2. Cells stimulated with DMSO alone also serve as negative controls. After the incubation, 30 μl of the pre-mix assay buffer and substrate buffer were added to each well according to manufacturer's instructions. The luminescence signal was read on a CLIPR machine with an integration time of 20 seconds per plate.

Sequence of human TLR2 (O60603 21-784): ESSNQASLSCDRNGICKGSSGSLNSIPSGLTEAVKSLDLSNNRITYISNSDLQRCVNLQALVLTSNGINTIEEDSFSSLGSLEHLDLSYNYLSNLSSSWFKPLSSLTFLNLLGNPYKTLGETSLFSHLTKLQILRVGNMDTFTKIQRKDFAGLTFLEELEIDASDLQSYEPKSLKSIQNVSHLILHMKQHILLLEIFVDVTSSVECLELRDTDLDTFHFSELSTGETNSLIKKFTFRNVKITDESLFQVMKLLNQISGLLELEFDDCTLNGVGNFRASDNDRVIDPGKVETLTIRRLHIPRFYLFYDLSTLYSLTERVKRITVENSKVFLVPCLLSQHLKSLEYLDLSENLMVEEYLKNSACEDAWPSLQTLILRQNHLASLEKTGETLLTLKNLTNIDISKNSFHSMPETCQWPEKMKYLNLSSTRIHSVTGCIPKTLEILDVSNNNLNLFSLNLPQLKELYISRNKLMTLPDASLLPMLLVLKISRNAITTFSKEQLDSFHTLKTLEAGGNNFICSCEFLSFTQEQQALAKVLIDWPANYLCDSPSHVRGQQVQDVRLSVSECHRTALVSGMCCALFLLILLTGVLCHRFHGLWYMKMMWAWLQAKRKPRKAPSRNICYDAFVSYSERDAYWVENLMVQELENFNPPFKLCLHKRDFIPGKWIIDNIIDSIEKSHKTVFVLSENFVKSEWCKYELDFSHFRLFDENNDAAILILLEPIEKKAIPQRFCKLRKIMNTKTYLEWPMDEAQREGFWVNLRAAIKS

Compound | Emax [%] | EC50 (Hek-TLR2 μM (EC50)) [nM] | Hek-TLR2 (% Eff) (% Eff relative to Pam3CSK4, HEK 293 human TLR2 NF-kB luciferase) | EC50 (read-out: Hek-TLR2 μM (EC50)) [nM]
(4R,7S,10R,14R)-4-carbamoyl-7-ethyl-6,9,17-trioxo-10-palmitamido-14-(palmitoyloxy)-16-oxa-12-thia-5,8-diazadotriacontan-1-oic acid [Example 47] | – | – | (88%) | 565
CCCCCCCCCCCC(=O)OC[C@H](CSC[C@H](N)C(=O)NCCOCCOCCN)OC(=O)CCCCCCCCCCC [Example 54, (11R,15R)-1,11-diamino-10-oxo-3,6-dioxa-13-thia-9-azahexadecane-15,16-diyl didodecanoate] | 101 | 1290 | – | –
CCCCCCCCCCCCOC[C@H](CSC[C@H](N)C(=O)NCCOCCOCCOCCP(=O)(O)O)OC(=O)NCCCCCCCCCC [Example 90, ((14R,18R)-14-amino-18-((dodecyloxy)methyl)-13,20-dioxo-3,6,9,19-tetraoxa-16-thia-12,21-diazahentriacontyl)phosphonic acid] | 47 | > 100000 | – | –
CCCCCCCCCCCC(=O)OC[C@H](CSC[C@H](N)C(=O)NC(CC)COC)OC(=O)CCCCCCCCCCC (stereo partly drawn) [Example 63, (2R)-3-(((2R)-2-amino-3-((1-methoxybutan-2-yl)amino)-3-oxopropyl)thio)propane-1,2-diyl didodecanoate] | 96 | 71.8 | – | –
CCCCCCCCCCCC(=O)OC[C@H](CSC[C@H](N)C(=O)NCCc1ccc(OCCCP(=O)(O)O)cc1)OC(=O)CCCCCCCCCCC [Example 16, 3-(4-(2-((R)-2-amino-3-((R)-2,3-bis(dodecanoyloxy)propylthio)propanamido)ethyl)phenoxy)propylphosphonic acid] | 107 | 410 | – | –
CCCCCCCCCCCCCCCCOC[C@H](CSC[C@H](N)C(=O)NC1(CO)CC1)NC(=O)CCCCCCCCCCC [Example 11, N—((R)-1-((R)-2-amino-3-(1-(hydroxymethyl)cyclopropylamino)-3-oxopropylthio)-3-(hexadecyloxy)propan-2-yl)dodecanamide] | 3.6 | > 100000 | – | –
CCCCCCCCCCCC(=O)OC[C@H](CSC[C@H](N)C(=O)NCCc1cccc(O)c1)OC(=O)CCCCCCCCCCC [Example 49, (R)-3-(((R)-2-amino-3-((3-hydroxyphenethyl)amino)-3-oxopropyl)thio)propane-1,2-diyl didodecanoate] | 51 | > 21000 | – | –
CCCCCCCCCCCCCC(=O)OC[C@H](CSC[C@H](N)C(=O)NCCOCCOCCOCCP(=O)(O)O)OC(=O)CCCCCCCCCCCCC [Example 25, (14R,18R)-14-amino-13,21-dioxo-18-(tetradecanoyloxy)-3,6,9,20-tetraoxa-16-thia-12-azatetratriacontylphosphonic acid] | 99 | 6.3 | – | –
CCCCCCCCCCNC(=O)OC[C@H](CSC[C@H](N)C(=O)NCCOCCOCCOCCC(=O)O)OC(=O)NCCCCCCCCCC [Example 37, (15R,19R)-15-amino-19-(decylcarbamoyloxy)-14,22-dioxo-4,7,10,21-tetraoxa-17-thia-13,23-diazatritriacontan-1-oic acid] | 7 | 6210 | – | –
CCCCCCCCCCCC(=O)OC[C@H](CSC[C@H](N)C(=O)N[C@@H](CO)C(=O)NCCOCCOCCOCCC(=O)O)OC(=O)CCCCCCCCCCC [Example 88, (15S,18R,22R)-18-amino-22-(dodecanoyloxy)-15-(hydroxymethyl)-14,17,25-trioxo-4,7,10,24-tetraoxa-20-thia-13,16-diazahexatriacontan-1-oic acid] | 145 | 9.2 | – | –
CCCCCCCCCCCC(=O)OC[C@H](CSC[C@H](N)C(=O)NC(C)CCC(C)C)OC(=O)CCCCCCCCCCC (stereo partly drawn) [Example 74, (2R)-3-(((2R)-2-amino-3-((5-methylhexan-2-yl)amino)-3-oxopropyl)thio)propane-1,2-diyl didodecanoate] | 105 | 190 | – | –
CCCCCCCCCCCC(=O)OC[C@H](CSC[C@H](N)C(=O)NCCCn1ccnc1)OC(=O)CCCCCCCCCCC [Example 60, (R)-3-(((R)-3-((3-(1H-imidazol-1-yl)propyl)amino)-2-amino-3-oxopropyl)thio)propane-1,2-diyl didodecanoate] | 119 | 410 | – | –
CCCCCCCCCCNC(=O)OC[C@H](CSC[C@H](NC(=O)CCCCCC)C(=O)NCCOCCOCCOCCP(=O)(O)O)OC(=O)NCCCCCCCCCC [Example 85, ((14R,18R)-18-((decylcarbamoyl)oxy)-14-heptanamido-13,21-dioxo-3,6,9,20-tetraoxa-16-thia-12,22-diazadotriacontyl)phosphonic acid] | 71 | 2170 | – | –
CCCCCCCCCCCC(=O)OC[C@H](CSC[C@H](N)C(=O)NCCc1ccc(OCCC(C)C)cc1)OC(=O)CCCCCCCCCCC [Example 44, (R)-3-(((R)-2-amino-3-((4-(isopentyloxy)phenethyl)amino)-3-oxopropyl)thio)propane-1,2-diyl didodecanoate] | 72 | 8170 | – | –

Continued, in another order:

Emax [%] | EC50 (Hek-TLR2 μM (EC50)) [nM] | Compound | Hek-TLR2 (% Eff) (% Eff relative to Pam3CSK4, HEK 293 human TLR2 NF-kB luciferase) | EC50 (read-out: Hek-TLR2 μM (EC50)) [nM]
73 | 247 | CCCCCCCCCCCC(=O)OC[C@H](CSC[C@H](N)C(=O)NCCCOCCOCCOCCCNC(=O)C(N)CS)OC(=O)CCCCCCCCCCC (stereo partly drawn) [Example 9, (20R,24R)-2,20-diamino-1-mercapto-3,19-dioxo-8,11,14-trioxa-22-thia-4,18-diazapentacosane-24,25-diyl didodecanoate] | – | –
35 | 2910 | CCCCCCCCCCCCOC[C@H](CSC[C@H](N)C(=O)N[C@@H](C)C(=O)NCCOCCOCCP(=O)(O)O)NC(=O)CCCCCCCCCCC [Example 31, ((11S,14R,18R)-14-amino-18-dodecanamido-11-methyl-10,13-dioxo-3,6,20-trioxa-16-thia-9,12-diazadotriacontyl)phosphonic acid] | – | –
111 | 1040 | CCCCCCCCCCCC(=O)OC[C@H](CSC[C@H](N)C(=O)NCCCCN)OC(=O)CCCCCCCCCCC [Example 57, (R)-3-(((R)-2-amino-3-((4-aminobutyl)amino)-3-oxopropyl)thio)propane-1,2-diyl didodecanoate] | – | –
61 | 15300 | CCCCCCCCCCCC(=O)OC[C@H](CSC[C@H](N)C(=O)NCCc1ccc(OCCOCCO)cc1)OC(=O)CCCCCCCCCCC [Example 41, (R)-3-(((R)-2-amino-3-((4-(2-(2-hydroxyethoxy)ethoxy)phenethyl)amino)-3-oxopropyl)thio)propane-1,2-diyl didodecanoate] | – | –
78 | 9130 | CCCCCCCCCCCCOC[C@H](CSC[C@H](N)C(=O)NCCOCCOCCOCCC(=O)O)OCCCCCCCCCCCC [Example 32, (15R,19R)-15-amino-19-(dodecyloxy)-14-oxo-4,7,10,21-tetraoxa-17-thia-13-azatritriacontan-1-oic acid] | – | –
30 | 1970 | CCCCCCCCCCCCOC[C@H](CSC[C@H](N)C(=O)N[C@@H](CO)C(=O)NCCOCCOCCP(=O)(O)O)NC(=O)CCCCCCCCCCC [Example 81, ((11S,14R,18R)-14-amino-18-dodecanamido-11-(hydroxymethyl)-10,13-dioxo-3,6,20-trioxa-16-thia-9,12-diazadotriacontyl)phosphonic acid] | – | –
76 | 820 | CCCCCCCCCCNC(=O)OC[C@H](CSC[C@H](N)C(=O)NCCOCCOCCOCCP(=O)(O)O)OC(=O)NCCCCCCCCCC [Example 83, ((14R,18R)-14-amino-18-((decylcarbamoyl)oxy)-13,21-dioxo-3,6,9,20-tetraoxa-16-thia-12,22-diazadotriacontyl)phosphonic acid] | – | –
25 | 96 | CCCCCCCCCCCCCCCC(=O)N[C@@H](CSC[C@@H](COC(=O)CCCCCCCCCCC)OC(=O)CCCCCCCCCCC)C(=O)NCCCOCCOCCOCCCNC(=O)CCC1OCCO1 [Example 40, (20R,24R)-1-(1,3-dioxolan-2-yl)-3,19-dioxo-20-palmitamido-8,11,14-trioxa-22-thia-4,18-diazapentacosane-24,25-diyl didodecanoate] | – | –
47 | > 100000 | CCCCCCCCCCCCCCCC(=O)N[C@@H](CSC[C@@H](COC(=O)CCCCCCCCCCC)OC(=O)CCCCCCCCCCC)C(=O)NCCOCCOCCOCCP(=O)(O)O [Example 34, ((14R,18R)-18-(dodecanoyloxy)-13,21-dioxo-14-palmitamido-3,6,9,20-tetraoxa-16-thia-12-azadotriacontyl)phosphonic acid] | – | –
109 | 3450 | CCCCCCCCCCCCCCCCOC[C@H](CSC[C@H](N)C(=O)NCCOCCOCCOCCP(=O)(O)O)OCCCCCCCCCCCCCCCC [Example 76, ((14R,18R)-14-amino-18-(hexadecyloxy)-13-oxo-3,6,9,20-tetraoxa-16-thia-12-azahexatriacontyl)phosphonic acid] | – | –
118 | 6500 | CCCCCCCCCCCC(=O)OC[C@H](CSC[C@H](N)C(=O)N[C@@H](CC)COCC(=O)O)OC(=O)CCCCCCCCCCC [Example 13, (5S,8R,12R)-8-amino-12-(dodecanoyloxy)-5-ethyl-7,15-dioxo-3,14-dioxa-10-thia-6-azahexacosan-1-oic acid] | – | –
107 | 1220 | CCCCCCCCCCCC(=O)OC[C@H](CSC[C@H](N)C(=O)NCCCCCCN)OC(=O)CCCCCCCCCCC [Example 56, (R)-3-(((R)-2-amino-3-((6-aminohexyl)amino)-3-oxopropyl)thio)propane-1,2-diyl didodecanoate] | – | –
15 | 770 | CCCCCCCCCCCCOC[C@H](CSC[C@H](N)C(=O)NCCOCCOCCC(F)(F)P(=O)(O)O)NC(=O)CCCCCCCCCCC [Example 35, (12R,16R)-12-amino-16-dodecanamido-1,1-difluoro-11-oxo-4,7,18-trioxa-14-thia-10-azatriacontylphosphonic acid] | – | –
118 | 257 | CCCCCCCCCCCC(=O)OC[C@H](CSC[C@H](N)C(=O)NC(C)CCCN(CC)CC)OC(=O)CCCCCCCCCCC (stereo partly drawn) [Example 69, (2R)-3-(((2R)-2-amino-3-((5-(diethylamino)pentan-2-yl)amino)-3-oxopropyl)thio)propane-1,2-diyl didodecanoate] | – | –
